Residual activity data for 3 compounds are collected here from ChEMBL document CHEMBL1152560, “Substituted 2-arylbenzothiazoles as kinase inhibitors: hit-to-lead optimization” (Bioorg Med Chem, 2009).

The target of experiment [1] is Macrophage-stimulating protein receptor (Homo sapiens) (UniProt Q04912). Kind of experiment: Residual activity of RON at 0.1 uM by microplate scintillation counting.
Experiment [2] concerns the target Proto-oncogene tyrosine-protein kinase Src (Homo sapiens) (UniProt P12931). Kind of experiment: Residual activity of SRC at 0.1 uM by microplate scintillation counting.
Experiment [3] has as its target T1, Interleukin-1 receptor-associated kinase 4 (Homo sapiens) (UniProt Q9NWZ3).
T1 sequence (whole entry): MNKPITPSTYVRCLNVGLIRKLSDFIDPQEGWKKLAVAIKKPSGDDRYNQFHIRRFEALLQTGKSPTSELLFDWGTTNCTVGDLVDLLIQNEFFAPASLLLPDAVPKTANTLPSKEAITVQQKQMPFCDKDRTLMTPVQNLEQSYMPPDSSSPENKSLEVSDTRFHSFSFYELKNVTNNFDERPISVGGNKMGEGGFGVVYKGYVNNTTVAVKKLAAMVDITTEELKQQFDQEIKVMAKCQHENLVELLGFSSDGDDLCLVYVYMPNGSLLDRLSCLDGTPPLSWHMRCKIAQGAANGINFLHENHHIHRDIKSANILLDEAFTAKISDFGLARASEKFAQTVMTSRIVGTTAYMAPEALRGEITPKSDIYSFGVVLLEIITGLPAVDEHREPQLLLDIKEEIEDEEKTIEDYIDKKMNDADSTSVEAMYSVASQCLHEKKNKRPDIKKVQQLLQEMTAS
The experiment in a line: Residual activity of IRAK4 at 0.1 uM by microplate scintillation counting.

Experiment [4] addresses Tyrosine-protein kinase SYK (Homo sapiens) (UniProt P43405). The experiment in a line: Residual activity of SYK at 1 uM by microplate scintillation counting.
The target in experiment [5] is Ribosomal protein S6 kinase alpha-4 (Homo sapiens) (UniProt O75676). The experiment in a line: Residual activity of RPS6KA4 at 0.1 uM by microplate scintillation counting.
Experiment [6] has as its target Ephrin type-A receptor 7 (Homo sapiens) (UniProt Q15375). The experiment in a line: Residual activity of EPHA7 at 0.1 uM by microplate scintillation counting.
The target of experiment [7] is Tyrosine-protein kinase receptor UFO (Homo sapiens) (UniProt P30530). Kind of experiment: Residual activity of AXL at 10 uM by microplate scintillation counting.
Experiment [8] can be described thus: Residual activity of S6K at 0.1 uM by microplate scintillation counting.
Experiment [9] deals with T2, Serine/threonine-protein kinase NLK (Homo sapiens) (UniProt Q9UBE8).
T2 sequence (whole entry): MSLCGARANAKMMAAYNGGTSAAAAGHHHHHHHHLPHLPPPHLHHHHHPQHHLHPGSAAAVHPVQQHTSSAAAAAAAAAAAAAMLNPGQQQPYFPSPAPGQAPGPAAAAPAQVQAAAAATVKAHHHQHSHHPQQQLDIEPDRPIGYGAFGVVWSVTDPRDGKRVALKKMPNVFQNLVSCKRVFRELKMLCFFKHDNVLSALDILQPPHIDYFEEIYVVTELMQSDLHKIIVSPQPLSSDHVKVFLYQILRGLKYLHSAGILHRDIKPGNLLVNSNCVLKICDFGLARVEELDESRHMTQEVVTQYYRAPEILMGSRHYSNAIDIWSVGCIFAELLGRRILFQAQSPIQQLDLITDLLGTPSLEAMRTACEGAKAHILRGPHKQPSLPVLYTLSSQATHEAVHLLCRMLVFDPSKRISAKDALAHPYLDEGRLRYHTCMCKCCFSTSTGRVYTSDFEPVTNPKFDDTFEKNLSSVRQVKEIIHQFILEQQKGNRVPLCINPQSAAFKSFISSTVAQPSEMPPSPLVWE
Kind of experiment: Residual activity of NLK at 10 uM by microplate scintillation counting.

In experiment [10] the test system is Epidermal growth factor receptor (Homo sapiens), P00533 [L858R,T790M]. The experiment in a line: Residual activity of EGFR T790M/L858R mutant at 0.1 uM by microplate scintillation counting.
Experiment [11] concerns the target Casein kinase II subunit alpha (Homo sapiens) (UniProt P68400). The experiment in a line: Residual activity of CK2alpha1 at 1 uM by microplate scintillation counting.
The target of experiment [12] is T3, Ephrin type-A receptor 8 (Homo sapiens) (UniProt P29322).
T3 sequence (whole entry): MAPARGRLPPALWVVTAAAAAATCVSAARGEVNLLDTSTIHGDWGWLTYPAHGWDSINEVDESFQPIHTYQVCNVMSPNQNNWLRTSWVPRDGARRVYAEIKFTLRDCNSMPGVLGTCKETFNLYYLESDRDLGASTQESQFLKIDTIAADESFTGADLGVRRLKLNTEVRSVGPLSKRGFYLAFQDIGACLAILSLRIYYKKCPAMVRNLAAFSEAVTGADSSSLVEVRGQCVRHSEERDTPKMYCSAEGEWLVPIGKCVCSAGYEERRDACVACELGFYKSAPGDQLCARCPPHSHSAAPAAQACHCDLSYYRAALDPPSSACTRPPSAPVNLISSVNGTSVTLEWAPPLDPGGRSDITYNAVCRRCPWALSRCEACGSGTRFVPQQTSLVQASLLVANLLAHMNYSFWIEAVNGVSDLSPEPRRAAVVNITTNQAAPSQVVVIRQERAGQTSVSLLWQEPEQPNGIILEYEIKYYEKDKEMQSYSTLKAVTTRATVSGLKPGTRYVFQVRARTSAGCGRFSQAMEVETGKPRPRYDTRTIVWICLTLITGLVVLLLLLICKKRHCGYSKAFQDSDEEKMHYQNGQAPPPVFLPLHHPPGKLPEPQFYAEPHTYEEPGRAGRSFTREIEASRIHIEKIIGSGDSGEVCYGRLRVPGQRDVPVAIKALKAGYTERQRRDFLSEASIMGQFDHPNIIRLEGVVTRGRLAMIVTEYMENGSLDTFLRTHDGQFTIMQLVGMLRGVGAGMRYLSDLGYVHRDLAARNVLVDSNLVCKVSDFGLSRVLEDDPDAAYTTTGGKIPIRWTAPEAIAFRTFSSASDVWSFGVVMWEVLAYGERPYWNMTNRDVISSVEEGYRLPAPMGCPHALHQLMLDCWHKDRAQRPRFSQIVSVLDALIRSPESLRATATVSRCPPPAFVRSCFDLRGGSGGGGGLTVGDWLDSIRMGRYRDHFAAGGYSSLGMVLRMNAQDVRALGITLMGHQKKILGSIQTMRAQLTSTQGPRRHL
The experiment in a line: Residual activity of EPHA8 at 10 uM by microplate scintillation counting.

Sequence of Proto-oncogene tyrosine-protein kinase Src (Homo sapiens) (P12931 2-536 limits assumed): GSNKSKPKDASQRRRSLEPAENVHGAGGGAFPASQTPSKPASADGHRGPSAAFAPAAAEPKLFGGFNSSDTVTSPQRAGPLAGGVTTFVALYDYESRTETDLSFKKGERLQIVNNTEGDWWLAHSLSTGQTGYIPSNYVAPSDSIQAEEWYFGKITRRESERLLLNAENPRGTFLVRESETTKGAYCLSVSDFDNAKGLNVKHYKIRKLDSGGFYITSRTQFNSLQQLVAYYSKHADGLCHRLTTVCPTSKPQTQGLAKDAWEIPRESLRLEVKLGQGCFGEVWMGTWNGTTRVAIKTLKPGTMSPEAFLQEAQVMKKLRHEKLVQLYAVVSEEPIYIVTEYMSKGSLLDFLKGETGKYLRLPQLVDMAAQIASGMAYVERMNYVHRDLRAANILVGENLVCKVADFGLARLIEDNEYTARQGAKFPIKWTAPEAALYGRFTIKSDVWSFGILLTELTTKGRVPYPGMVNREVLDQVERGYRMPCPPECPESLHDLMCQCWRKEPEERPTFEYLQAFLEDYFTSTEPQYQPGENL
Sequence of Tyrosine-protein kinase receptor UFO (Homo sapiens) (P30530 whole entry): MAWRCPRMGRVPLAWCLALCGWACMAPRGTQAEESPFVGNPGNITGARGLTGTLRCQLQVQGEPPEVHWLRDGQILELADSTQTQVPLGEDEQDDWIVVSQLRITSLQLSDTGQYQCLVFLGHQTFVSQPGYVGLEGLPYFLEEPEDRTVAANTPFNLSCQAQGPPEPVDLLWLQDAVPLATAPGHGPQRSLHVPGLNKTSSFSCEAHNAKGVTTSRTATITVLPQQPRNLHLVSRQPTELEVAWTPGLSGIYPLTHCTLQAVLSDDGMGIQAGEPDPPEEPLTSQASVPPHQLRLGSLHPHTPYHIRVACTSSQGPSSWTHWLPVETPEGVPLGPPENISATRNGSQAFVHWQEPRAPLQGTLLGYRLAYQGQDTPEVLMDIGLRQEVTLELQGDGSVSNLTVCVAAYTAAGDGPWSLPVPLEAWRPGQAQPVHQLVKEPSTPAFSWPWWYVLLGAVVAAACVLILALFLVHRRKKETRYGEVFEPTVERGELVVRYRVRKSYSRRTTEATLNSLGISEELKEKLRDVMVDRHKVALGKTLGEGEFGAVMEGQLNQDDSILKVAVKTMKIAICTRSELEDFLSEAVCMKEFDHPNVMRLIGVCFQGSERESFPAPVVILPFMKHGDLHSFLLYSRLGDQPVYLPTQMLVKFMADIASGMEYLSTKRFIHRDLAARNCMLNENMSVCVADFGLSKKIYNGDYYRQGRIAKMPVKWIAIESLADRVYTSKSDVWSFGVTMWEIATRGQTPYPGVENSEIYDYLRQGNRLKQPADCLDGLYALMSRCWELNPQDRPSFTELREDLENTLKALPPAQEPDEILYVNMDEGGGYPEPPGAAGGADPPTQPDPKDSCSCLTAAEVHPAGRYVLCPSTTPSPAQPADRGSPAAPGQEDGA
Sequence of Ephrin type-A receptor 7 (Homo sapiens) (Q15375 28-998 limits assumed): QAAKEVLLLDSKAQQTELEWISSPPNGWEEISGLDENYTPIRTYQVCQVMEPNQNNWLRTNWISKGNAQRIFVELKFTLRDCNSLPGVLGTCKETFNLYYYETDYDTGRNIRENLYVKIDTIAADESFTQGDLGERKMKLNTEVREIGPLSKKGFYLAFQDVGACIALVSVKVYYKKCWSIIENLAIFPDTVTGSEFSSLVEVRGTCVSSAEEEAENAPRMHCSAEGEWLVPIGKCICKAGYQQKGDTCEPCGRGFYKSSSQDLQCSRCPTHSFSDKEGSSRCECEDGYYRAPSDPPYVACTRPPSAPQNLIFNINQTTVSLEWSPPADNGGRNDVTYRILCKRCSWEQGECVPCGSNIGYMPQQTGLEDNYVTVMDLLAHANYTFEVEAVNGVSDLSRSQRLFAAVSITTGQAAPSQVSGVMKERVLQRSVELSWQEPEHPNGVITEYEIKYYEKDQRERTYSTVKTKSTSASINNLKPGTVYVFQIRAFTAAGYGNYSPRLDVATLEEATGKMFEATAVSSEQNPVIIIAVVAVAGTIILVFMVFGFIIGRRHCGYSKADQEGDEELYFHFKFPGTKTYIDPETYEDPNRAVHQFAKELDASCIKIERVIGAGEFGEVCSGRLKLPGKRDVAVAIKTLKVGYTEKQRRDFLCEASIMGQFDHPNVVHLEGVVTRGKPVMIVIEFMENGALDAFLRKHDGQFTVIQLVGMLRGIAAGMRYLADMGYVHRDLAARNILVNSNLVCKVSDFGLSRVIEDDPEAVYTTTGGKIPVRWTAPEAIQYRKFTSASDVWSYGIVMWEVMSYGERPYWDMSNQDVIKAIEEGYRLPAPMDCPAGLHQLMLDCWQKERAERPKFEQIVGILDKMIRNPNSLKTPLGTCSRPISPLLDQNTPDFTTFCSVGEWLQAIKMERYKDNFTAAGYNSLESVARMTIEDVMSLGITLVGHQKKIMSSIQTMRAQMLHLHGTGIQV
Sequence of Casein kinase II subunit alpha (Homo sapiens) (P68400 whole entry, looked up): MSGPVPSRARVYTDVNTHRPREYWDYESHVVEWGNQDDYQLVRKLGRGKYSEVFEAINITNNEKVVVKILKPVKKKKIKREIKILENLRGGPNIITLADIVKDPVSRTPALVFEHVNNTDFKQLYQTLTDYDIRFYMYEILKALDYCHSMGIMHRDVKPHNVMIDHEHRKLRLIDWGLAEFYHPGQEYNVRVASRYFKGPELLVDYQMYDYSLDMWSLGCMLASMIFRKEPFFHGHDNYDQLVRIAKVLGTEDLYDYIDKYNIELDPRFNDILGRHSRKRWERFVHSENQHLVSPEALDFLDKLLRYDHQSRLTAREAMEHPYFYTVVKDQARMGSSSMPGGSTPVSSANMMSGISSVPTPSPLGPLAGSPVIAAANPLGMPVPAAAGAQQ
Sequence of Macrophage-stimulating protein receptor (Homo sapiens) (Q04912 25-304 limits assumed): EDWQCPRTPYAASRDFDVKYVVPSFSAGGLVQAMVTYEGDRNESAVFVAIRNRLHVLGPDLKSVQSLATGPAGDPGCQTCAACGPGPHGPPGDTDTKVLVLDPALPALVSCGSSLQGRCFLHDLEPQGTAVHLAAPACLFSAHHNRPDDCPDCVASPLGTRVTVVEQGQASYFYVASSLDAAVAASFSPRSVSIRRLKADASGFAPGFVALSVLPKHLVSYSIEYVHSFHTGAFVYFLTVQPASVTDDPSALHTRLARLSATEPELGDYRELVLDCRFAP
Sequence of Macrophage-stimulating protein receptor (Homo sapiens) (Q04912 310-1400 limits assumed): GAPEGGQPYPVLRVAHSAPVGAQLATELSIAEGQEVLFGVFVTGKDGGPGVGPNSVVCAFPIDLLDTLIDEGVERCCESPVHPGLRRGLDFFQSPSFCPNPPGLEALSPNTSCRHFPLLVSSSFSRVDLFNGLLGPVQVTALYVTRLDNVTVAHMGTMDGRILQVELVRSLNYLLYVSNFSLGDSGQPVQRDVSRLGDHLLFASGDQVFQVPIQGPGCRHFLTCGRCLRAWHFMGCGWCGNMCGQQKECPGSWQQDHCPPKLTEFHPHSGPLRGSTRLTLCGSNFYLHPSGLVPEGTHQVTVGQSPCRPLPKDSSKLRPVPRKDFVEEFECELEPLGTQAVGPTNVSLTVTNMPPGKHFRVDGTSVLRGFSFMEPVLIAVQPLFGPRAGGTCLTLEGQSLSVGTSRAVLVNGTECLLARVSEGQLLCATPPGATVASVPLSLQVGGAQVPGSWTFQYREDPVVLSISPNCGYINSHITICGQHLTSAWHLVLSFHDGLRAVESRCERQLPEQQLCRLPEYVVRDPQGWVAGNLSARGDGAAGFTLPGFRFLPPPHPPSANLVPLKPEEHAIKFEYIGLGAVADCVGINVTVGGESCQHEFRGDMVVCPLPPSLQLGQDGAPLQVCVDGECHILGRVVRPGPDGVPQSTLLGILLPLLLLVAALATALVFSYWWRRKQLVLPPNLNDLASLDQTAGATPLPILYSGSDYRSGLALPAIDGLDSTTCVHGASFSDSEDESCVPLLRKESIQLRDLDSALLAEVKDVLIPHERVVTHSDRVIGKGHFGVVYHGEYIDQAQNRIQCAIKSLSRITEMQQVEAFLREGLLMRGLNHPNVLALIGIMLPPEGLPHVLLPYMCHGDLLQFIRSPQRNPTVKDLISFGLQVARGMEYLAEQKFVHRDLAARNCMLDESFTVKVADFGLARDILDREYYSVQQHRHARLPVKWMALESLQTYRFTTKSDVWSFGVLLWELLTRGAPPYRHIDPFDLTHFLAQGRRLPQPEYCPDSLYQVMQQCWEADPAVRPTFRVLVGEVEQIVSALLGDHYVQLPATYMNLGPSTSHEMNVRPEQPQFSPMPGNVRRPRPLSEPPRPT
Sequence of Ribosomal protein S6 kinase alpha-4 (Homo sapiens) (O75676 whole entry, looked up): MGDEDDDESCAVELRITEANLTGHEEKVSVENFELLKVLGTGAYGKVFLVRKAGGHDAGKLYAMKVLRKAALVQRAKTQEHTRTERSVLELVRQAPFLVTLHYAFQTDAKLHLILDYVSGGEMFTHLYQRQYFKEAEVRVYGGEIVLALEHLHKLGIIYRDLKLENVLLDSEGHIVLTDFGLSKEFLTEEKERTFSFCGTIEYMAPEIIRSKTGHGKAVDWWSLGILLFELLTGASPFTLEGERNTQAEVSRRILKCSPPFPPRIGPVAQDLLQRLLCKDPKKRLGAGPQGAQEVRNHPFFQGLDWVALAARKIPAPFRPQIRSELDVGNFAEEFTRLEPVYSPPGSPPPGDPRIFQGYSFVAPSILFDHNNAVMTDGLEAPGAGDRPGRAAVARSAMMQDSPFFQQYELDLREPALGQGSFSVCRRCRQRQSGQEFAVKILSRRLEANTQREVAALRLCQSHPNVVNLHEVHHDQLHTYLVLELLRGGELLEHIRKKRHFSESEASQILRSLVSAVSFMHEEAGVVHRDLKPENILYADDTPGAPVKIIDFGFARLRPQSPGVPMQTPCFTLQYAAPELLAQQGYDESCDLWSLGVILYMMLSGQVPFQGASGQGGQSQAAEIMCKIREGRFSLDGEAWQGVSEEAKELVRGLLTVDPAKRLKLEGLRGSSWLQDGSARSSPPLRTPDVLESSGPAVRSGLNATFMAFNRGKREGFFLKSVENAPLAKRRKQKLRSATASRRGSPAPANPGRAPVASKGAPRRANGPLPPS

Take `COc1cc2c(Oc3ccc(-c4nc5ccccc5s4)cc3)ncnc2cc1OCCCN1CCN(C)CC1`: the residual activity amounted to 74% in experiment [1]; 100% in [2]; 100% in experiment [3]; 95% in experiment [4]; 91% in experiment [5]; 88% in [6]. For the same compound, the residual activity in experiment [7] was determined as 125%; in experiment [8] it was 85%; in experiment [9] it was 113%; in [10], 100%; in experiment [11], 90%; in [12], 273%.

For the compound `COc1cc2c(Oc3ccc(-c4nc5ccccc5s4)cc3)ncnc2cc1OCCCN1CCCC1`, the residual activity came out at 90% in [1]; 100% in [2]; 96% in experiment [3]; 97% in experiment [4]; 88% in experiment [5]; 111% in experiment [6]. Further, the residual activity was found to be 57% in [7]; 90% in experiment [8]; 90% in experiment [9]; 98% in experiment [10]; 94% in [11]; 185% in experiment [12].

As to `COc1cc2c(Oc3ccc(-c4nc5ccccc5s4)cc3F)ncnc2cc1OCCCN1CCN(C)CC1`, the residual activity in experiment [1] is 72%; in experiment [2], 100%; in [3] it was 101%; in experiment [4], 102%; in [5], 93%; in [6], 103%. For the same compound, the residual activity in experiment [7] amounted to 54%; in [8], 87%; in experiment [9], 114%; in experiment [10], 101%; in experiment [11], 108%; in [12], 114%.
